Test results from patent publication US20250179066A1, “ZWITTERIONIC ANTIBACTERIAL COMPOUNDS” (Hoffmann-La Roche Inc., priority 2022, published 2025).
Structures can show the parent of a compound that is named as a salt.

System: Acinetobacter baumannii ATCC17961
Assay: Antimicrobial susceptibility testing: 90% growth inhibitory concentration (IC90) determination
Type: cell-based
Conditions: Acinetobacter baumannii, ATCC17961, 16 h, 90% growth inhibitory concentration against Acinetobacter baumannii ATCC17961, Iso-Sensitest broth, OD 600 nm over 16 h; read-out: ATCC 17961 IC90
Outline: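 Twofold serial dilutions (e.g. 10 to 0.0195 μM final) in Iso-Sensitest broth inoculated at ~5×10^5 CFU/mL, incubated at 35±2° C. OD600 read every minute for 16 h; IC90 is the concentration inhibiting 90% of growth during logarithmic phase.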

SMILES | IC90 [µM]
CN(C)c1ccc(-n2cc(-c3cnc(C(=O)Nc4ccc(C(=O)N5CCN(C(=O)C6CC[N+](CC(=O)O)(CC7CNC7)CC6)CC5)c(Cl)c4)n3C)c(C(F)(F)F)n2)cc1 (centres unmarked) [Example 46, 2-[1-(azetidin-3-ylmethyl)-4-[4-[2-chloro-4-[[5-[1-[4-(dimethylamino)phenyl]-3-(trifluoromethyl)pyrazol-4-yl]-1-methyl-imidazole-2-carbonyl]amino]benzoyl]piperazine-1-carbonyl]piperidin-1-ium-1-yl]acetic acid. 1:1 formate] | 0.5
Cn1c(-c2cn(-c3ccc(NC[C@H]4COCCN4)cn3)nc2C(F)(F)F)cnc1C(=O)Nc1ccc(C(=O)N2CCN(C(=O)C3CC[N+](CC(=O)O)(CC4CNC4)CC3)CC2)c(Cl)c1 (stereo partly drawn) [Example 47, 2-[1-(azetidin-3-ylmethyl)-4-[4-[2-chloro-4-[[1-methyl-5-[1-[5-[[(3S)-morpholin-3-yl]methylamino]-2-pyridyl]-3-(trifluoromethyl)pyrazol-4-yl]imidazole-2-carbonyl]amino]benzoyl]piperazine-1-carbonyl]piperidin-1-ium-1-yl]acetic acid. 1:1 2,2,2-trifluoroacetic acid. 1:1 2,2,2-trifluoroacetate] | 0.5
Cn1c(-c2cn(-c3ccc(N)cn3)nc2C(F)(F)F)cnc1C(=O)Nc1ccc(C(=O)N2CCN(C(=O)[C@H]3CC[N@+](CCCN)(CC(=O)O)CC3)CC2)c(Cl)c1 [Example 48, trans-2-[1-(3-aminopropyl)-4-[4-[4-[[5-[1-(5-amino-2-pyridyl)-3-(trifluoromethyl)pyrazol-4-yl]-1-methyl-imidazole-2-carbonyl]amino]-2-chloro-benzoyl]piperazine-1-carbonyl]piperidin-1-ium-1-yl]acetic acid. 1:1 2,2,2-trifluoroacetate] | 0.51
CN(C)c1ccc(-n2cc(-c3cnc(C(=O)Nc4ccc(C(=O)N5CCN(C(=O)C6CC[N+](CC(=O)O)(CC7CNC7)CC6)CC5)c(Cl)c4)n3C)c(C(F)(F)F)n2)cn1 (centres unmarked) [Example 49, 2-[1-(azetidin-3-ylmethyl)-4-[4-[2-chloro-4-[[5-[1-[6-(dimethylamino)-3-pyridyl]-3-(trifluoromethyl)pyrazol-4-yl]-1-methyl-imidazole-2-carbonyl]amino]benzoyl]piperazine-1-carbonyl]piperidin-1-ium-1-yl]acetic acid. 1:1 2,2,2-trifluoroacetate] | 0.52
Cn1c(-c2cn(-c3ccc(N)cn3)nc2C(F)(F)F)cnc1C(=O)Nc1ccc(C(=O)N2CCN(C(=O)CCC[N+](CC(=O)O)(CC3CNC3)CC3CNC3)CC2)c(Cl)c1 [Example 50, [4-[4-[4-[[5-[1-(5-amino-2-pyridyl)-3-(trifluoromethyl)pyrazol-4-yl]-1-methyl-imidazole-2-carbonyl]amino]-2-chloro-benzoyl]piperazino]-4-keto-butyl]-bis(azetidin-3-ylmethyl)-(carboxymethyl)ammonium. 1:1 2,2,2-trifluoroacetic acid. 1:1 2,2,2-trifluoroacetate] | 0.52
Cn1c(-c2cn(-c3ccc(NCCCCCCN)cn3)nc2C(F)(F)F)cnc1C(=O)Nc1ccc(C(=O)N2CCN(C(=O)C3CC[N+](CC(=O)O)(CC4CNC4)CC3)CC2)c(Cl)c1 (centres unmarked) [Example 51, 2-[4-[4-[4-[[5-[1-[5-(6-aminohexylamino)-2-pyridyl]-3-(trifluoromethyl)pyrazol-4-yl]-1-methyl-imidazole-2-carbonyl]amino]-2-chloro-benzoyl]piperazine-1-carbonyl]-1-(azetidin-3-ylmethyl)piperidin-1-ium-1-yl]acetic acid. 1:1 2,2,2-trifluoroacetic acid. 1:1 2,2,2-trifluoroacetate] | 0.52
CNc1ccnc(-n2cc(-c3cnc(C(=O)Nc4ccc(C(=O)N5CCN(C(=O)C6CC[N+](CC(=O)O)(CC7CNC7)CC6)CC5)c(Cl)c4)n3C)c(C(F)(F)F)n2)c1 (centres unmarked) [Example 52, 2-[1-(azetidin-3-ylmethyl)-4-[4-[2-chloro-4-[[1-methyl-5-[1-[4-(methylamino)-2-pyridyl]-3-(trifluoromethyl)pyrazol-4-yl]imidazole-2-carbonyl]amino]benzoyl]piperazine-1-carbonyl]piperidin-1-ium-1-yl]acetic acid. 1:1 2,2,2-trifluoroacetate] | 0.53
CN1CCN(c2ccc(-n3cc(-c4cnc(C(=O)Nc5ccc(C(=O)N6CCN(C(=O)C7CC[N+](CC(=O)O)(CC8CNC8)CC7)CC6)c(Cl)c5)n4C)c(C(F)(F)F)n3)nc2)CC1 (centres unmarked) [Example 53, 2-[1-(azetidin-3-ylmethyl)-4-[4-[2-chloro-4-[[1-methyl-5-[1-[5-(4-methylpiperazino)-2-pyridyl]-3-(trifluoromethyl)pyrazol-4-yl]imidazole-2-carbonyl]amino]benzoyl]piperazine-1-carbonyl]piperidin-1-ium-1-yl]acetic acid. 1:1 formate] | 0.55
Cn1c(-c2cn(-c3ccc(O)cn3)nc2C(F)(F)F)cnc1C(=O)Nc1ccc(C(=O)N2CCN(C(=O)C3CC[N+](CC(=O)O)(CC4CNC4)CC3)CC2)c(Cl)c1 (centres unmarked) [Example 54, 2-[1-(azetidin-3-ylmethyl)-4-[4-[2-chloro-4-[[5-[1-(5-hydroxy-2-pyridyl)-3-(trifluoromethyl)pyrazol-4-yl]-1-methyl-imidazole-2-carbonyl]amino]benzoyl]piperazine-1-carbonyl]piperidin-1-ium-1-yl]acetic acid. 1:1 2,2,2-trifluoroacetate] | 0.55
Cn1c(-c2cn(-c3ccc4[nH]cnc4n3)nc2C(F)(F)F)cnc1C(=O)Nc1ccc(C(=O)N2CCN(C(=O)[C@H]3CC[N@+](CC(=O)O)(CC4CNC4)CC3)CC2)c(Cl)c1 [Example 55, cis-2-[1-(azetidin-3-ylmethyl)-4-[4-[2-chloro-4-[[5-[1-(1H-imidazo[4,5-b]pyridin-5-yl)-3-(trifluoromethyl)pyrazol-4-yl]-1-methyl-imidazole-2-carbonyl]amino]benzoyl]piperazine-1-carbonyl]piperidin-1-ium-1-yl]acetic acid. 1:1 2,2,2-trifluoroacetate] | 0.55
Cn1c(-c2cn(-c3cccc(N)n3)nc2C(F)(F)F)cnc1C(=O)Nc1ccc(C(=O)N2CCN(C(=O)C3CC[N+](CC(=O)O)(CC4CNC4)CC3)CC2)c(Cl)c1 (centres unmarked) [Example 56, 2-[4-[4-[4-[[5-[1-(6-amino-2-pyridyl)-3-(trifluoromethyl)pyrazol-4-yl]-1-methyl-imidazole-2-carbonyl]amino]-2-chloro-benzoyl]piperazine-1-carbonyl]-1-(azetidin-3-ylmethyl)piperidin-1-ium-1-yl]acetic acid. 1:1 2,2,2-trifluoroacetate] | 0.56
Cn1c(-c2cn(-c3ccc(NC[C@@H]4C[C@H](F)CN4)cn3)nc2C(F)(F)F)cnc1C(=O)Nc1ccc(C(=O)N2CCN(C(=O)C3CC[N+](CC(=O)O)(CC4CNC4)CC3)CC2)c(Cl)c1 (stereo partly drawn) [Example 57, 2-[1-(azetidin-3-ylmethyl)-4-[4-[2-chloro-4-[[5-[1-[5-[[(2S,4S)-4-fluoropyrrolidin-2-yl]methylamino]-2-pyridyl]-3-(trifluoromethyl)pyrazol-4-yl]-1-methyl-imidazole-2-carbonyl]amino]benzoyl]piperazine-1-carbonyl]piperidin-1-ium-1-yl]acetic acid. 1:1 2,2,2-trifluoroacetic acid. 1:1 2,2,2-trifluoroacetate] | 0.61
Cn1c(-c2cn(-c3ncc(N)cc3F)nc2C(F)(F)F)cnc1C(=O)Nc1ccc(C(=O)N2CCN(C(=O)[C@H]3CC[N@+](CC(=O)O)(CC4CNC4)CC3)CC2)c(Cl)c1 [Example 58, cis-2-[4-[4-[4-[[5-[1-(5-Amino-3-fluoro-2-pyridyl)-3-(trifluoromethyl)pyrazol-4-yl]-1-methyl-imidazole-2-carbonyl]amino]-2-chloro-benzoyl]piperazine-1-carbonyl]-1-(azetidin-3-ylmethyl)piperidin-1-ium-1-yl]acetic Acid.1:1 2,2,2-trifluoroacetate] | 0.63
Cn1c(-c2cn(-c3ccc(N)cn3)nc2C(F)(F)F)cnc1C(=O)Nc1ccc(C(=O)N2CCN(C(=O)C3CC[N+](CC(=O)O)(CC4CNC4)CC3)CC2)c(Cl)c1 (centres unmarked) [Example 59, 2-[4-[4-[4-[[5-[1-(5-amino-2-pyridyl)-3-(trifluoromethyl)pyrazol-4-yl]-1-methyl-imidazole-2-carbonyl]amino]-2-chloro-benzoyl]piperazine-1-carbonyl]-1-(azetidin-3-ylmethyl)piperidin-1-ium-1-yl]acetic acid. 1:1 formate] | 0.65
Cn1c(-c2cn(-c3ccc(N)cn3)nc2C(F)(F)F)cnc1C(=O)Nc1ccc(C(=O)N2CCN(C(=O)C3CC[N+](CCCC(=O)O)(CC4CNC4)CC3)CC2)c(Cl)c1 (centres unmarked) [Example 60, 4-[4-[4-[4-[[5-[1-(5-amino-2-pyridyl)-3-(trifluoromethyl)pyrazol-4-yl]-1-methyl-imidazole-2-carbonyl]amino]-2-chloro-benzoyl]piperazine-1-carbonyl]-1-(azetidin-3-ylmethyl)piperidin-1-ium-1-yl]butyric acid. 1:1 2,2,2-trifluoroacetate] | 0.66
Cn1c(-c2cn(-c3ccc4c(n3)CCN4)nc2C(F)(F)F)cnc1C(=O)Nc1ccc(C(=O)N2CCN(C(=O)C3CC[N+](CC(=O)O)(CC4CNC4)CC3)CC2)c(Cl)c1 (centres unmarked) [Example 61, 2-[1-(azetidin-3-ylmethyl)-4-[4-[2-chloro-4-[[5-[1-(2,3-dihydro-1H-pyrrolo[3,2-b]pyridin-5-yl)-3-(trifluoromethyl)pyrazol-4-yl]-1-methyl-imidazole-2-carbonyl]amino]benzoyl]piperazine-1-carbonyl]piperidin-1-ium-1-yl]acetic acid. 1:1 2,2,2-trifluoroacetate] | 0.67
Cn1c(-c2cn(-c3n[nH]c4ccccc34)nc2C(F)(F)F)cnc1C(=O)Nc1ccc(C(=O)N2CCN(C(=O)C3CC[N+](CC(=O)O)(CC4CNC4)CC3)CC2)c(Cl)c1 (centres unmarked) [Example 62, 2-[1-(azetidin-3-ylmethyl)-4-[4-[2-chloro-4-[[5-[1-(1H-indazol-3-yl)-3-(trifluoromethyl)pyrazol-4-yl]-1-methyl-imidazole-2-carbonyl]amino]benzoyl]piperazine-1-carbonyl]piperidin-1-ium-1-yl]acetic acid;formate] | 0.68
